Measured values taken from ChEMBL document CHEMBL1136418, “Synthesis and gamma-secretase activity of APP substrate-based hydroxyethylene dipeptide isosteres” (Bioorg Med Chem Lett, 2003).

How the values were obtained:
[1] = molecular target: T1, Gamma-secretase subunit PEN-2 (Homo sapiens, UniProt Q9NZ42); assay: Inhibitory concentration against gamma-secretase was determined
[2] = molecular target: T1, Gamma-secretase subunit PEN-2; assay: Compound required for inhibition of gamma-secretase-mediated formation of Abeta1-42 polypeptide; type: functional
[3] = molecular target: T1, Gamma-secretase subunit PEN-2; assay: Compound required for inhibition of gamma-secretase-mediated formation of Abeta1-40 polypeptide; type: functional

T1 sequence (Q9NZ42 whole entry): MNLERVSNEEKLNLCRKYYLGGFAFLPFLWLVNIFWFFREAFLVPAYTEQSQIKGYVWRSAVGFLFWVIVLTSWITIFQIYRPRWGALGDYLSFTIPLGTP

Row | Structure (SMILES) | IC50 [1] [µM] | ED50 [2] [µM] | ED50 [3] [µM]
1 | CC(C)C[C@H](NC(=O)[C@H](Cc1ccccc1)C[C@@H](O)[C@H](Cc1ccccc1)NC(=O)OC(C)(C)C)C(=O)N[C@@H](Cc1ccccc1)C(N)=O | 0.3 | 0.014 | 0.036
2 | CCC(C)[C@H](NC(=O)[C@@H](NC(=O)[C@@H](C[C@@H](O[Si](C)(C)C(C)(C)C)[C@H](C)NC(=O)OC(C)(C)C)[C@@H](C)O[Si](C)(C)C(C)(C)C)C(C)C)C(N)=O (stereo partly specified) | – | > 10 | > 10
3 | CCC(C)[C@H](NC(=O)[C@@H](NC(=O)[C@H](C[C@@H](O[Si](C)(C)C(C)(C)C)[C@H](C)NC(=O)OC(C)(C)C)C(C)O[Si](C)(C)C(C)(C)C)C(C)C)C(N)=O (stereo partly specified) | – | > 10 | > 10
4 | CC[C@H](C)[C@H](NC(=O)[C@@H](NC(=O)[C@H](Cc1ccccc1)C[C@@H](O)[C@H](Cc1ccccc1)NC(=O)OC(C)(C)C)C(C)C)C(N)=O | – | 35 | 32
5 | CCC(C)C(C[C@@H](O[Si](C)(C)C(C)(C)C)[C@@H](NC(=O)OC(C)(C)C)C(C)C)C(=O)N[C@@H](C)C(=O)N[C@H](C(N)=O)C(C)O (stereo partly specified) | – | > 10 | > 10
6 | CC(NC(=O)[C@H](Cc1ccccc1)C[C@@H](O)[C@H](Cc1ccccc1)NC(=O)OC(C)(C)C)C(=O)N[C@H](C(N)=O)[C@H](C)O (single isomer, unassigned) | – | 230 | 732
7 | CC(C)C[C@H](NC(=O)[C@H](CN)C[C@@H](O)[C@H](Cc1ccccc1)NC(=O)OC(C)(C)C)C(=O)N[C@@H](Cc1ccccc1)C(N)=O | – | > 10 | > 10
8 | CC(C)C[C@H](NC(=O)/C(=C/C[C@H](Cc1ccccc1)NC(=O)OC(C)(C)C)Cc1ccccc1)C(=O)N[C@@H](Cc1ccccc1)C(N)=O | – | > 10 | > 10
9 | CCC(C)[C@H](NC(=O)[C@@H](NC(=O)[C@@H](C[C@@H](O[Si](C)(C)C(C)(C)C)[C@H](C)NC(=O)OC(C)(C)C)[C@H](C)O[Si](C)(C)C(C)(C)C)C(C)C)C(N)=O (stereo partly specified) | – | > 10 | > 10
10 | CC(C)C[C@H](NC(=O)C(CC[C@H](Cc1ccccc1)NC(=O)OC(C)(C)C)Cc1ccccc1)C(=O)N[C@@H](Cc1ccccc1)C(N)=O (stereo partly specified) | – | > 10 | > 10
